The test system of the assay is test plant species. In words: Post-emergent herbicidal activity test (greenhouse, foliar spray, visual growth reduction). Format: in vivo. The note with it: post-emergence, 336 h, 140 g ai/ha. In outline: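 Visual percent injury (0-100) rated 14 d after treatment, relative to nontreated and solvent-blank plants. Test plants at first or second true leaf stage received an overhead track-sprayer application at 187 L/ha. Compounds were formulated in aqueous acetone/DMSO carrier containing crop oil concentrate and X-77 surfactant.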

Setting [1] is: ECHCG: barnyardgrass (Echinochloa crus-galli), 14 days after application, read-out: Visual Growth Reduction (%) 14 Days After Application, ECHCG.
Where [2] appears, read: IPOHE: ivy-leaf morning glory (Ipomoea hederacea), 14 days after application, read-out: Visual Growth Reduction (%) 14 Days After Application, IPOHE.
The mark [3] stands for this setting: KCHSC: kochia (Bassia scoparia), 14 days after application, read-out: Visual Growth Reduction (%) 14 Days After Application, KCHSC.
The mark [4] stands for this setting: ORYSA: rice (Oryza sativa), 14 days after application, read-out: Visual Growth Reduction (%) 14 Days After Application, ORYSA.
Where [5] appears, read: SETFA: giant foxtail (Setaria faberi), 14 days after application, read-out: Visual Growth Reduction (%) 14 Days After Application, SETFA.
Where [6] appears, read: SORVU: grain sorghum (Sorghum vulgare), 14 days after application, read-out: Visual Growth Reduction (%) 14 Days After Application, SORVU.
Setting [7] is: STEME: common chickweed (Stellaria media), 14 days after application, read-out: Visual Growth Reduction (%) 14 Days After Application, STEME.
The mark [8] stands for this setting: TRZAS: wheat, spring (Triticum aestivum), 14 days after application, read-out: Visual Growth Reduction (%) 14 Days After Application, TRZAS.
The mark [9] stands for this setting: blackgrass (Alopecurus myosuroides), 14 Days After Application, read-out: Visual Growth Reduction (%) ALOMY.
The mark [10] stands for this setting: canada thistle (Cirsium arvense), 14 Days After Application, read-out: Visual Growth Reduction (%) CIRAR.
Setting [11] is: crabgrass (Digitaria sanguinalis), 14 Days After Application, read-out: Visual Growth Reduction (%) DIGSA.
Setting [12] is: lambsquarters (Chenopodium album), 14 Days After Application, read-out: Visual Growth Reduction (%) CHEAL.
Setting [13] is: redroot pigweed (Amaranthus retroflexus), 14 Days After Application, read-out: Visual Growth Reduction (%) AMARE.
[14] abbreviates: wild oat (Avena fatua), 14 Days After Application, read-out: Visual Growth Reduction (%) AVEFA.
The mark [15] stands for this setting: yellow nutsedge (Cyperus esculentus), 14 Days After Application, read-out: Visual Growth Reduction (%) CYPES.

Where two headings read alike, the source gives them in different places.

For the molecule `COC(=O)c1nc(-c2cccc3c2OC(F)(F)O3)c(F)cc1Cl` [F256, Methyl 3-chloro-6-(2,2-difluorobenzo[d][1,3]dioxol-4-yl)-5-fluoropicolinate], the pest or weed control at 140 g/ha lay in the range of 0 to 29% under setting [1]; 0 to 29% under setting [2]; 0 to 29% under setting [3]; 0 to 29% under setting [4]; 0 to 29% under setting [5]; 0 to 29% under setting [6]. For the same molecule, the pest or weed control at 140 g/ha is, setting by setting: under setting [7], 0 to 29%; under setting [8], 0 to 29%; under setting [9], 0 to 29%; under setting [10], 0 to 29%; under setting [11], 0 to 29%; under setting [12], 0 to 29%. The pest or weed control at 140 g/ha under setting [13] fell in the range of 0 to 29%, the pest or weed control at 140 g/ha under setting [14] lay within 0 to 29% and the pest or weed control at 140 g/ha under setting [15] is 0 to 29%.
As for `COC(=O)c1nc(-c2cc(Br)c(C(F)(F)F)cc2Cl)c(Cl)cc1Cl` [F257, Methyl 6-(5-bromo-2-chloro-4-(trifluoromethyl)phenyl)-3,5-dichloropicolinate], the pest or weed control at 140 g/ha is 0 to 29% under setting [1]; 85 to 94% under setting [2]; 0 to 29% under setting [3]; 0 to 29% under setting [4]; 0 to 29% under setting [5]; 0 to 29% under setting [6]. The pest or weed control at 140 g/ha under setting [7] is 0 to 29%; the pest or weed control at 140 g/ha under setting [8] fell in the range of 0 to 29%; the pest or weed control at 140 g/ha under setting [9] lay in the range of 0 to 29%; the pest or weed control at 140 g/ha under setting [10] is 0 to 29%; the pest or weed control at 140 g/ha under setting [11] was 0 to 29%; the pest or weed control at 140 g/ha under setting [12] is 75 to 84%. In addition, the pest or weed control at 140 g/ha under setting [13] lay within 0 to 29%, the pest or weed control at 140 g/ha under setting [14] lay in the range of 0 to 29% and the pest or weed control at 140 g/ha under setting [15] lay in the range of 0 to 29%.
Turning to `COC(=O)c1nc(-c2ccc3c(c2)OC(F)(F)O3)c(F)cc1Cl` [F258, Methyl 3-chloro-6-(2,2-difluorobenzo[d][1,3]dioxol-5-yl)-5-fluoropicolinate], the pest or weed control at 140 g/ha was 0 to 29% under setting [1]; 95 to 100% under setting [2]; 0 to 29% under setting [3]; 0 to 29% under setting [4]; 0 to 29% under setting [5]; 75 to 84% under setting [6]. Further, the pest or weed control at 140 g/ha by setting is: under setting [7], 0 to 29%; under setting [8], 0 to 29%; under setting [9], 0 to 29%; under setting [10], 0 to 29%; under setting [11], 85 to 94%; under setting [12], 75 to 84%. In addition, the pest or weed control at 140 g/ha fell in the range of 60 to 74% under setting [13], 0 to 29% under setting [14] and 30 to 44% under setting [15].
As for `Cc1cc(C(F)(F)F)cc(Cl)c1-c1ccc(Cl)c(C(=O)O)n1` [F259, 3-Chloro-6-(2-chloro-6-methyl-4-(trifluoromethyl)phenyl)picolinic acid], the pest or weed control at 140 g/ha runs as follows: under setting [1], 45 to 59%; under setting [2], 95 to 100%; under setting [3], 60 to 74%; under setting [4], 0 to 29%; under setting [5], 75 to 84%; under setting [6], 85 to 94%. Moreover, the pest or weed control at 140 g/ha was in the range of 0 to 29% under setting [7]; 45 to 59% under setting [8]; 0 to 29% under setting [9]; 75 to 84% under setting [10]; 60 to 74% under setting [11]; 75 to 84% under setting [12]. Also, the pest or weed control at 140 g/ha is, setting by setting: under setting [13], 95 to 100%; under setting [14], 0 to 29%; under setting [15], 0 to 29%.
With `COC(=O)c1nc(-c2ccc3ccsc3c2F)ccc1Cl` [F260, Methyl 3-chloro-6-(7-fluorobenzo[b]thiophen-6-yl) picolinate], the pest or weed control at 140 g/ha by setting is: under setting [1], 0 to 29%; under setting [2], 0 to 29%; under setting [3], 0 to 29%; under setting [4], 0 to 29%; under setting [5], 0 to 29%; under setting [6], 0 to 29%. Besides, the pest or weed control at 140 g/ha under setting [7] fell in the range of 0 to 29%; the pest or weed control at 140 g/ha under setting [8] fell in the range of 0 to 29%; the pest or weed control at 140 g/ha under setting [9] lay in the range of 0 to 29%; the pest or weed control at 140 g/ha under setting [10] is 0 to 29%; the pest or weed control at 140 g/ha under setting [11] lay within 0 to 29%; the pest or weed control at 140 g/ha under setting [12] was 0 to 29%. The pest or weed control at 140 g/ha fell in the range of 0 to 29% under setting [13], 0 to 29% under setting [14] and 0 to 29% under setting [15].
As for `COC(=O)c1nc(-c2cc3nonc3cc2Cl)ccc1Cl` [F261, Methyl 3-chloro-6-(6-chlorobenzo[c][1,2,5]oxadiazol-5-yl)picolinate], the pest or weed control at 140 g/ha is, setting by setting: under setting [1], 0 to 29%; under setting [2], 75 to 84%; under setting [3], 0 to 29%; under setting [4], 0 to 29%; under setting [5], 0 to 29%; under setting [6], 0 to 29%. Also, the pest or weed control at 140 g/ha reads like this: under setting [7], 0 to 29%; under setting [8], 0 to 29%; under setting [9], 0 to 29%; under setting [10], 30 to 44%; under setting [11], 60 to 74%; under setting [12], 60 to 74%. The pest or weed control at 140 g/ha was 0 to 29% under setting [13], 0 to 29% under setting [14] and 0 to 29% under setting [15].
With `COC(=O)c1nc(-c2ccc3ncoc3c2)ccc1Cl` [F262, Methyl 6-(benzo[d]oxazol-6-yl)-3-chloropicolinate], the pest or weed control at 140 g/ha runs as follows: under setting [1], 0 to 29%; under setting [2], 30 to 44%; under setting [3], 0 to 29%; under setting [4], 0 to 29%; under setting [5], 0 to 29%; under setting [6], 0 to 29%. Besides, the pest or weed control at 140 g/ha reads like this: under setting [7], 0 to 29%; under setting [8], 0 to 29%; under setting [9], 0 to 29%; under setting [10], 0 to 29%; under setting [11], 0 to 29%; under setting [12], 30 to 44%. Also, the pest or weed control at 140 g/ha fell in the range of 0 to 29% under setting [13], 0 to 29% under setting [14] and 0 to 29% under setting [15].
As to `COC(=O)c1nc(-c2ccc([S+](C)[O-])cc2)c(F)cc1Cl` (stereo not drawn) [F263, Methyl 3-chloro-5-fluoro-6-(4-(methylsulfinyl)phenyl)picolinate], the pest or weed control at 140 g/ha by setting is: under setting [1], 0 to 29%; under setting [2], 0 to 29%; under setting [3], 0 to 29%; under setting [4], 0 to 29%; under setting [5], 0 to 29%; under setting [6], 0 to 29%. For the same molecule, the pest or weed control at 140 g/ha under setting [7] fell in the range of 0 to 29%; the pest or weed control at 140 g/ha under setting [8] lay within 0 to 29%; the pest or weed control at 140 g/ha under setting [9] was in the range of 0 to 29%; the pest or weed control at 140 g/ha under setting [10] was 0 to 29%; the pest or weed control at 140 g/ha under setting [11] lay in the range of 0 to 29%; the pest or weed control at 140 g/ha under setting [12] lay in the range of 0 to 29%. Also, the pest or weed control at 140 g/ha lay within 0 to 29% under setting [13], 0 to 29% under setting [14] and 0 to 29% under setting [15].
Take `COC(=O)c1nc(-c2cccc(F)c2OC)c(F)cc1Cl` [F264, Methyl 3-chloro-5-fluoro-6-(3-fluoro-2-methoxyphenyl) picolinate]: the pest or weed control at 140 g/ha by setting is: under setting [1], 0 to 29%; under setting [2], 95 to 100%; under setting [3], 0 to 29%; under setting [4], 0 to 29%; under setting [5], 0 to 29%; under setting [6], 0 to 29%. The pest or weed control at 140 g/ha is 0 to 29% under setting [7]; 0 to 29% under setting [8]; 0 to 29% under setting [9]; 30 to 44% under setting [10]; 0 to 29% under setting [11]; 75 to 84% under setting [12]. The pest or weed control at 140 g/ha is 0 to 29% under setting [13], 0 to 29% under setting [14] and 0 to 29% under setting [15].
